Counter-ions that a name gives are not always drawn.

The assay has as its target T1, recombinant human PDK1 (Homo sapiens, UniProt O15530).
T1 construct: containing amino acids 51-556 of the human PDK1 enzyme; made in house; host or cells: Sf9 insect cells
T1 sequence (O15530 51-556): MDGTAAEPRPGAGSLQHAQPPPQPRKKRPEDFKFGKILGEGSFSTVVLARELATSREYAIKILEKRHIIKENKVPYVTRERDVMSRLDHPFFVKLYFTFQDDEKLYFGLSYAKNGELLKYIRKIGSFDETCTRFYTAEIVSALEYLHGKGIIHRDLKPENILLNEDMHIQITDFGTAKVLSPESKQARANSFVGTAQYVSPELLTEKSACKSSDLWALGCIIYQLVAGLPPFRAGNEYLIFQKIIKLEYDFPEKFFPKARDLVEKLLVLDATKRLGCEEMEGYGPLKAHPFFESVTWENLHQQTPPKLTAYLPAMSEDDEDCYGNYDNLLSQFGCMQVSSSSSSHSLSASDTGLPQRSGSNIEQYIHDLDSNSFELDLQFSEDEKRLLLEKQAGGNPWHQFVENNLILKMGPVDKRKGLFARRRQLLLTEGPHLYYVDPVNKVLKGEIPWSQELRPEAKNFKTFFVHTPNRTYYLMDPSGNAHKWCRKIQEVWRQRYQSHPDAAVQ
The assay can be described thus: PDK1 IMAP fluorescence polarization kinase assay. In kind it is biochemical. The note with it: 10 nM PDK1, 100 nM peptide substrate, 100 nM PIFtide, 2.5 uM ATP, 1.5 hours. For orientation: In fluorescence polarisation assays a small probe gives low polarisation when free and higher when bound to something large.
Broadly, the IC50 is the point on the concentration scale where inhibition reaches its midpoint. Turning to `O=C(Nc1cc2[nH]ncc2cc1-c1cccc(CN2CCCC2)c1)c1csc(-c2cc(C(F)(F)F)n[nH]2)n1` [Compound 1-11, N-(5-(3-(pyrrolidin-1-ylmethyl)phenyl)-1H-indazol-6-yl)-2-(3-(trifluoromethyl)-1H-pyrazol-5-yl)thiazole-4-carboxamide], the IC50 was determined as 33 nM.
On to `NC1(c2ccc(-c3cc4cn[nH]c4cc3NC(=O)c3csc(-c4cc(C(F)(F)F)n[nH]4)n3)cc2)CC1` [Compound 1-18, N-(5-(4-(1-aminocyclopropyl)phenyl)-1H-indazol-6-yl)-2-(3-(trifluoromethyl)-1H-pyrazol-5-yl)thiazole-4-carboxamide], for which the IC50 is 1860 nM.
In the case of `O=C(Nc1cc2[nH]ncc2cc1-c1cccc(CN2CCCCC2)c1)c1csc(-c2cc(C(F)(F)F)n[nH]2)n1` [Compound 3-5, N-(5-(3-(piperidin-1-ylmethyl)phenyl)-1H-indazol-6-yl)-2-(3-(trifluoromethyl)-1H-pyrazol-5-yl)thiazole-4-carboxamide hydrochloride] it was 170 nM; in that of `Cc1cc(CN)ccc1-c1cc2cn[nH]c2cc1NC(=O)c1csc(-c2cc(C(F)(F)F)n[nH]2)n1` [Compound 4-6, N-(5-(4-(aminomethyl)-2-methylphenyl)-1H-indazol-6-yl)-2-(3-(trifluoromethyl)-1H-pyrazol-5-yl)thiazole-4-carboxamide], 108 nM.
To `Cc1cc(-c2nc(C(=O)Nc3cc4[nH]ncc4cc3-c3ccc4c(c3)CNC4)cs2)[nH]n1` [Compound 5-7, N-(5-(isoindolin-5-yl)-1H-indazol-6-yl)-2-(3-methyl-1H-pyrazol-5-yl)thiazole-4-carboxamide] belongs 85 nM.

Values taken from patent US20130053382A1, “Inhibitors of Phosphoinositide Dependent Kinase 1 (PDK1)” (priority 2010, published 2013).
